Values quoted from earlier work as cited in patent US20050232957A1, “Compositions and methods for moisturizing skin” (priority 2004, published 2005).

Details: person, one month after starting treatment

- aquagenic wrinkling of the palms (AWP): developed AWP
SMILES: CS(=O)(=O)c1ccc(C2=C(c3ccccc3)C(=O)OC2)cc1 [rofecoxib]
